Experiments:
[1] = test system: 3×MBT domain of L3MBTL1; test: SILAC proteomic pull-down 3×MBT vs 3×MBTD355N from 293T nuclear extract, LC-MS/MS; type: binding, human; conditions: for Protein Ratio 3xMBT/D355N: SILAC ratio, 293T nuclear extract pull-down, * = protein identified in only one labeling experiment
Experimental: Protein pull-downs were performed as described above using 600 μg of nuclear extract prepared with isotopic labels as indicated. After eluting with glutathione, 3×MBT domain was removed by dialysis into high salt and rebinding to GSH-sepharose. Bound proteins were separated by SDS-PAGE and analyzed by in-gel tryptic digest followed by LC-MS/MS. Peptides were identified using MaxQuant version 1.2.2.5 (Cox and Mann (2008) Nat. Biotechnol. 26, 1367-1372) and candidate methylated peptides were verified by manual inspection.
For stable isotope labeling by amino acids in cell culture (SILAC) experiments HEK 293T cells were grown for at least six doublings in DMEM for SILAC supplemented with 10% dialyzed fetal bovine serum (FBS), 230 mg/L L-proline and either 100 mg/L each of L-lysine and L-arginine (“light” medium), D4-L-lysine and ^13C6-L-arginine (“medium” media), or ^13C6^15N2-L-lysine and ^13C6^15N4-L-arginine (Thermo Scientific). Heavy methyl labeling used DMEM without L-Methionine or L-Cysteine supplemented with D3^13C-L-Methionine (Sigma), L-Cysteine (Sigma) and 10% dialyzed FBS.
600 μg of nuclear extract was incubated overnight rotating at 4° C. with 20 μl packed 3×MBT or 3×MBTD355N beads in a total volume of 250 μL with binding buffer. Supernatant was removed and saved for use as a loading control. Beads were washed 4×5 minutes with 0.5 mL binding buffer. Protein was eluted by incubating in 20 μL elution buffer (10 mg/mL glutathione in 50 mM Tris pH 8.0) rotating at 4° C. for four hours. Elutions from 3×MBT and 3×MBTD355N were combined and dialyzed overnight at 4° C. against 10,000× volume of dissociation buffer (50 mM Tris pH 7.5, 750 mM NaCl) in a 0.1 mL Slide-A-Lyzer MINI Dialysis Device with 3.5K molecular weight cutoff (Thermo Scientific). 80 μL of GSH-Sepharose was prepared by washing briefly three times with 0.5 mL binding buffer. Dialyzed proteins were added to the GSH-Sepharose and incubated 4 hours rotating at 4° C. to deplete the GST-fusion domains. Supernatant was transferred to a fresh 1.5 mL tube. Proteins were separated by SDS-PAGE on a 10% polyacrylamide gel and stained using SilverQuest Silver Staining Kit (Life Technologies). Lanes were excised, residual 3×MBT band was removed, and gel was diced into 0.5 mm cubes. Gel pieces were destained and processed by in-gel digestion (Carlson et al. (2011) Science Signaling 4) with sequencing grade trypsin (Promega) and the peptide sample was dried completely in a vacuum centrifuge. To prepare a loading control, 2 μL each of light and heavy nuclear extract were combined, 6 μL of 8M urea was added, proteins were denatured by adding 2 μL of 100 mM dithiothreitol in digest buffer (50 mM ammonium bicarbonate) and heating to 60° C. for 1 hour, cysteine was alkylated by adding 2.2 μL 100 mg/mL iodoacetamide in digest buffer and incubating 1 hour at room temperature in darkness, and proteins were digested by adding 80 μL trypsin (Promega) at 12.5 ng/μL in digest buffer and incubating overnight at room temperature in darkness. Digestion was stopped by adding 10 μL of 10% formic acid.
Each experiment consisted of two sets of pull-downs: “forward” labeling with 3×MBT incubated with light nuclear extract and 3×MBTD355N with medium extract, and a second “reverse” labeling experiment with the label conditions swapped. Proteins were included in the results if they were quantified in both labeling directions. To determine reproducibility the entire experiment including the label swap was duplicated using independent protein preparations and a mass spectrometer at another institution.
For 3×MBT pull-down experiment #1 the gel lane was processed and peptides were loaded off-line onto a first dimension trap column (Waters Xbridge, C18, 10 μm particle size, 100 Å pore size, 5 cm packing length, 150 μm column i.d.). […]

[2] = molecular target: T1, G9a and GLP (Homo sapiens, UniProt Q96KQ7+Q9H9B1); test: Triple SILAC pull-down after UNC0638 treatment of 293T cells, DMSO/UNC0638 ratio of protein captured by 3×MBT; type: cell-based; conditions: 293T cells, 2.5 μM, 24 hours;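 note: mass spectrometry (Q-Exactive) SILAC quantitation, DMSO/UNC0638 ratio computed after subtracting 3×MBTD355N mutant pull-down background, only proteins with at least twofold 3×MBT over mutant signal considered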
T1 construct: endogenous in cells; host or cells: HEK 293T
T1 sequence (Q96KQ7 2-1210 limits assumed): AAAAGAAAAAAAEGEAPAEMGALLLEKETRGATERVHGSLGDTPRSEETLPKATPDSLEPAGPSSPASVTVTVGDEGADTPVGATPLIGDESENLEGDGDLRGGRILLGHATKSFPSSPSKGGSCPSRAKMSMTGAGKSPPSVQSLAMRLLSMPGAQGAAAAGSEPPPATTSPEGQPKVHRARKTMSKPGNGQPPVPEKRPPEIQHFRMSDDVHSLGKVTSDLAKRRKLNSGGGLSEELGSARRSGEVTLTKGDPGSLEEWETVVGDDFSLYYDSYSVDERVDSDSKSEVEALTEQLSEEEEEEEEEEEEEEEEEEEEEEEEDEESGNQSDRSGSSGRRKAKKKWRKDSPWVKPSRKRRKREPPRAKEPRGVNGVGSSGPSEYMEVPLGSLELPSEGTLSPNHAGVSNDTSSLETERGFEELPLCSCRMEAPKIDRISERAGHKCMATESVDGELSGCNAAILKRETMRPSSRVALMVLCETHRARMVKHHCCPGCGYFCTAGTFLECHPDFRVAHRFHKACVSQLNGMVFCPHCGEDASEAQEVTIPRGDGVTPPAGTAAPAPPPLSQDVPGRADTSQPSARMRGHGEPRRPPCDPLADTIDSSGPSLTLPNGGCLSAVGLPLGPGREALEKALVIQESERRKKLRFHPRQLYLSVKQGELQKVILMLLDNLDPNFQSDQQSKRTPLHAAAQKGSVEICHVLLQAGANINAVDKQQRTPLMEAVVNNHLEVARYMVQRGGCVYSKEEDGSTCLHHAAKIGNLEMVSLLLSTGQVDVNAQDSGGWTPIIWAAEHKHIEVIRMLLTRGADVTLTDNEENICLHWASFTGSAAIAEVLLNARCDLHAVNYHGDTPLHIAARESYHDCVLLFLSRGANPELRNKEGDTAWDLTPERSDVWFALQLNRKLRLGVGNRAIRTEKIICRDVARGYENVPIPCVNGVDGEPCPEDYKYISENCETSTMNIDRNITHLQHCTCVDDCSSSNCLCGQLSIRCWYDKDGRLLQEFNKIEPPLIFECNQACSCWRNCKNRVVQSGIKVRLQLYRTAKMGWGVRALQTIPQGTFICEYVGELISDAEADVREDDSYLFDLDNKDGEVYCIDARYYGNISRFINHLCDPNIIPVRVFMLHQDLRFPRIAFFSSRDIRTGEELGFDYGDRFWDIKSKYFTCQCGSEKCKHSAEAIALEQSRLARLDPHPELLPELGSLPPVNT
T1 sequence (Q9H9B1 2-1298 limits assumed): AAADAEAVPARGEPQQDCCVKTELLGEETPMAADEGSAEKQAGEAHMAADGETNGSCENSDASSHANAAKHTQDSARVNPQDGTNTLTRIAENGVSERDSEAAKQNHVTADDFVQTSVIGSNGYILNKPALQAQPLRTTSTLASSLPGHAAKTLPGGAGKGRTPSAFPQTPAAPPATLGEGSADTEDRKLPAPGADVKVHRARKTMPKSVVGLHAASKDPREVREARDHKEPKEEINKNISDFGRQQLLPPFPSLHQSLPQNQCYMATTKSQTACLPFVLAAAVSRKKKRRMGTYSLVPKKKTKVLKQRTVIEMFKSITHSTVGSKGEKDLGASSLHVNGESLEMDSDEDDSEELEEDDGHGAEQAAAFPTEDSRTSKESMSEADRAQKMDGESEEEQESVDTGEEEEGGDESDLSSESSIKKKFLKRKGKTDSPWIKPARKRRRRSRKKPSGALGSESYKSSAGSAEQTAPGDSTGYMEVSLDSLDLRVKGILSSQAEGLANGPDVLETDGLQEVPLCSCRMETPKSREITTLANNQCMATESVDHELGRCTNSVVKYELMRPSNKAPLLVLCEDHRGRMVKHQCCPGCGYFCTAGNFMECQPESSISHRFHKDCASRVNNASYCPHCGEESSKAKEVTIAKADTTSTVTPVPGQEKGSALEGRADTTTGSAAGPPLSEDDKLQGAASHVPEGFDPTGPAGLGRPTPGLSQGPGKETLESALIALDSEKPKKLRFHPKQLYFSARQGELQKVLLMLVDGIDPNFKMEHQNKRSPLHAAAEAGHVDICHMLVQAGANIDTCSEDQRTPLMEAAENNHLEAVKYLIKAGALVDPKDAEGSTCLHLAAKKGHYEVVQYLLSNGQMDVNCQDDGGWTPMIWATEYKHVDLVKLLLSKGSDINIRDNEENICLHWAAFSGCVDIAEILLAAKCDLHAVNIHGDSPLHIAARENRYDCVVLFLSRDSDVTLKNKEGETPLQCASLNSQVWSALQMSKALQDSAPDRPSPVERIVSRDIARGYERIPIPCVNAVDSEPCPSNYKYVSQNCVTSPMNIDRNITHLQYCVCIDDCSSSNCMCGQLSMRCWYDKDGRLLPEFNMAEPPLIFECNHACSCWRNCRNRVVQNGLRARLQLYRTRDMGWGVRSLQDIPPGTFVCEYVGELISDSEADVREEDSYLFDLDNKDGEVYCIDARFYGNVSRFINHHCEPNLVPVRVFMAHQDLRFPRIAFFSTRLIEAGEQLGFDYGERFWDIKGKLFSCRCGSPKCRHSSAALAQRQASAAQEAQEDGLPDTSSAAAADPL

[3] = test system: H3K9me2; test: Western blot of 293T whole cell extracts ±UNC0638; type: cell-based; conditions: 293T cells
Experimental: For UNC0638 treatments cells were treated for 24 hours with UNC0638 at 2.5 μM or DMSO vehicle control. One experiment treated cells in light media with UNC0638, the other treated cells in heavy media. Both experiments included cells in medium media treated with DMSO for negative control pull-down with 3×MBTD355N.

hn RNP A/B: protein with methylated lysine identified in 3xMBT pull-down
Protein Ratio 3xMBT/D355N [1]: 13.4

hnRNP K: protein with methylated lysine identified in 3xMBT pull-down
Protein Ratio 3xMBT/D355N [1]: 8.0

3×MBTD355N: 3×MBT with mutation of aspartate 355 to asparagine; abrogates binding to methyl-lysine; negative control [reference compound]
number of the 544 identified proteins enriched at 2-fold versus the other domain ([1]; SILAC): 3 | percentage of the 544 identified proteins enriched at 2-fold versus the other domain ([1]; SILAC): 0.6%

TUBB2C: protein with methylated lysine identified in 3xMBT pull-down
Protein Ratio 3xMBT/D355N [1]: 2.1

COc1cc2c(NC3CCN(C(C)C)CC3)nc(C3CCCCC3)nc2cc1OCCCN1CCCC1 [UNC0638, reference compound]
number of candidate G9a/GLP substrates showing reduced association with 3×MBT in response to treatment [2]: 23 | levels of the G9a target H3K9me2 in treated cells [3]: reduced

Reference: patent US20140274782A1, “AFFINITY REAGENTS AND METHODS FOR DETECTION, PURIFICATION, AND PROTEOMIC ANALYSIS OF METHYLATED PROTEINS” (The Board of Trustees of the Leland Stanford Junior …, priority 2013, published 2014)
